# Literature values in US12097208B2, “Method for treating nasal, sinonasal, and nasopharyngeal tissue infection and/or inflammation” (OTICARA, INC., priority 2019, dated 2024).
# What was measured:
# [1] = in vivo
SMILES,Biological Half Life [1],also measured
"CCC(=O)OCC(=O)[C@@]1(OC(=O)CC)[C@@H](C)C[C@H]2C3CCC4=CC(=O)C=CC4(C)[C@@]3(F)[C@@H](O)CC21C (stereo partly drawn) [Betamethasone dipropionate, 9-Fluoro-11β,17,21-trihydroxy-16β-methylpregna-1,4-diene-3,20-dione 17,21-dipropionate]",36-54 Hours,
C[C@]12C=CC(=O)C=C1CC[C@H]1[C@@H]3C[C@@H](O)[C@](O)(C(=O)CO)[C@@]3(C)C[C@H](O)[C@@]12F [triamcinolone],18-36 Hours,
C[C@H]1C[C@@H]2[C@H]([C@@H](O)C[C@@]3(C)[C@H]2CC[C@]3(O)C(=O)CO)[C@@]2(C)C=CC(=O)C=C12 [Methyl-prednisolone],18-36 Hours,
Clc1ccccc1C(c1ccccc1)(c1ccccc1)n1ccnc1 [clotrimazole],,Antibacterial activity against Gardnerella vaginalis (Gardnerella vaginalis): antibacterial activity; Antibacterial activity against Steptococci (Steptococci): antibacterial activity; Antibacterial activity against Staphylococci (Staphylococci): antibacterial activity; Antibacterial activity against Corynebacteria (Corynebacteria): antibacterial activity; Effect on Pseudomonas aeruginosa (Pseudomonas aeruginosa): reduction
C[C@]12CCC(=O)C=C1CC[C@@H]1[C@@H]2[C@@H](O)C[C@@]2(C)[C@H]1CC[C@]2(O)C(=O)CO [hydrocortisone],8-12 Hours,
C[C@]12C=CC(=O)C=C1CC[C@@H]1[C@@H]2[C@@H](O)C[C@@]2(C)[C@H]1CC[C@]2(O)C(=O)CO [prednisolone],18-36 Hours,
